In patent US10413583B2, “Synthetic substrates for enzymes that catalyze reactions of modified cysteines and related methods” (The University of Chicago, priority 2016, dated 2019):

Experiments:
[1] = tested on: HeLa cells; assay: Flow cytometry of DPP-3 in HeLa cells; type: cell-based, human; details: 5 μM DPP-3, 5 min, flow cytometry
Method: (§1) Cells were plated on a 10 cm dish with 10 mL of DMEM/High Glucose (10% FBS, 1% P/S, L-Glutamine, Sodium pyruvate) 36-48 hours prior to the day of experiment and maintained at 37° C., 5% CO2 so as to obtain 80-90% confluency. Cells were washed with DPBS and trypsinized with 1 mL 0.05% Trypsin. 5 mL of DMEM/High Glucose (10% FBS, L-Glutamine, Sodium pyruvate) was added and cells were spun down at 1200 rpm for 3 min. Media was discarded and cells were resuspended in 5 mL of Live Cell Imaging Solution and again spun down at 1200 rpm for 3 min. The cells pellets obtained were resuspended in 3-5 mL of Live Cell Imaging Solution and divided into 500 μL aliquots. The aliquots were treated with either 0.2% DMSO carrier or 1 μM of PalmB/ML348 or 1 μM/5 μM of ML349 inhibitor. After 30 min of incubation at room temperature, 1 μL of 2.5 mM DPP-3 in DMSO was added to each aliquot for a final concentration of 5 μM, and the solutions were mixed. After 5 min incubation at room temperature, fluorescence signal in FITC channel was measured for 10000 cells (5000 for HeLa experiments) on a LSR-Fortessa 4-15 HTS (BD digital instrument, 488 nm laser with 530/30 nm filter for FITC; BD, Franklin Lakes, N.J., United States of America). For analyzing DPP2 in HEK293T cells, the aliquots were treated with either 0.2% DMSO carrier or 2 μM of PalmB, 5 or 20 μM of ML348/ML349 and then analyzed by the protocol as mentioned above. Data was analyzed by FlowJo software version 10.0.8. For comparison of A431 starved versus non-starved, parallel 10 cm dishes of A431 cells were plated in 10 mL of DMEM (high glucose, 10% FBS, 1% P/S), and grown for 36 h. The growth media was removed, and replaced by 10 mL of either DMEM (High glucose) with 10% FBS to maintain “growth” conditions, or DMEM (High glucose) without FBS respectively for “starvation” conditions, and incubated for 14 h. After trypsinization, both plates were treated with 5 mL of DMEM (high glucose) for spinning the cells down, and further processing and analysis were performed as described above by flow cytometry.

[2] = tested on: HEK293T cells; assay: Live cell fluorescence imaging and flow cytometry of DPP-2 and DPP-3 in HEK293T cells; type: cell-based, human; details: 1 μM DPP-2 for 15 min, microscopy or flow cytometry
Method: HEK293T (650,000 cells per dish) cells were plated with 1.5 mL of Dulbecco's Modified Eagle Medium (DMEM) (High Glucose, 10% fetal bovine serum (FBS)) in a 35 mm glass bottom dish (D35-10-1.5-N; Cellvis, Mountain View, Calif., United States of America) 24 hrs prior to imaging. 30 min before the addition of the DPP probe, the cell culture media was removed and cells were washed with 1 mL of Delbecco's phosphate-buffered saline (DPBS). The media was then replaced with 1 mL of DMEM containing 1 μM Hoechst 33342 and either 0.1% DMSO carrier as a control, 1 or 2 μM Palm B, 0.1, 1.0, or 5 μM ML348, and incubated for 30 min at 37° C. and 5% CO2. The media was removed, the cells were washed with 1 mL of Live Cell Imaging Solution (Thermo Fisher Scientific, Waltham, Mass., United States of America), and 1 mL of 1 μM DPP-2 or DPP-3 in Live Cell Imaging Solution was added to each plate. For ML348 0.1, 1.0, or 5 μM was added along with DPP-2 or DPP-3. After incubation for 15 min at 37° C. and 5% CO2, images were obtained on an inverted epi-fluorescence microscope (Olympus IX83; Olympus Corporation, Tokyo, Japan) attached with EMCCD camera (Photometrics EVOLVE™ Delta; Photometrics, Tucson, Ariz., United States of America) with 40× oil objective (N/A 1.3) for DPP-2 (excitation filter 500/20, dichroic chroma 89007, emission filter 535/30, exposure time 200 ms, EM gain 25), Hoechst 33342: (excitation filter 402/15, emission filter 455/50, dichroic chroma 89013, exposure time 30 ms, EM gain 25), and brightfield (exposure time 5 ms, EM gain 5), and for DPP-3 (exposure time 500 ms, EM gain 150), Hoechst 33342: (exposure time 30 ms, EM gain 25), and brightfield (exposure time 20 ms, EM gain 5). Analyses were performed in ImageJ. For data analysis, the average fluorescence intensity per image in each experimental condition was obtained by selecting regions of interest (ROIs) in the brightfield image. For display, the data were normalized to the average fluorescence intensity of the control conditions. Each experiment was repeated at least three separate times with identical results.
Cells were plated on a 10 cm dish with 10 mL of DMEM/High Glucose (10% FBS, 1% P/S, L-Glutamine, Sodium pyruvate) 36-48 hours prior to the day of experiment and maintained at 37° C., 5% CO2 so as to obtain 80-90% confluency. Cells were washed with DPBS and trypsinized with 1 mL 0.05% Trypsin. 5 mL of DMEM/High Glucose (10% FBS, L-Glutamine, Sodium pyruvate) was added and cells were spun down at 1200 rpm for 3 min. Media was discarded and cells were resuspended in 5 mL of Live Cell Imaging Solution and again spun down at 1200 rpm for 3 min. The cells pellets obtained were resuspended in 3-5 mL of Live Cell Imaging Solution and divided into 500 μL aliquots. The aliquots were treated with either 0.2% DMSO carrier or 1 μM of PalmB/ML348 or 1 μM/5 μM of ML349 inhibitor. After 30 min of incubation at room temperature, 1 μL of 2.5 mM DPP-3 in DMSO was added to each aliquot for a final concentration of 5 μM, and the solutions were mixed. After 5 min incubation at room temperature, fluorescence signal in FITC channel was measured for 10000 cells (5000 for HeLa experiments) on a LSR-Fortessa 4-15 HTS (BD digital instrument, 488 nm laser with 530/30 nm filter for FITC; BD, Franklin Lakes, N.J., United States of America). For analyzing DPP2 in HEK293T cells, the aliquots were treated with either 0.2% DMSO carrier or 2 μM of PalmB, 5 or 20 μM of ML348/ML349 and then analyzed by the protocol as mentioned above. Data was analyzed by FlowJo software version 10.0.8. For comparison of A431 starved versus non-starved, parallel 10 cm dishes of A431 cells were plated in 10 mL of DMEM (high glucose, 10% FBS, 1% P/S), and grown for 36 h. The growth media was removed, and replaced by 10 mL of either DMEM (High glucose) with 10% FBS to maintain “growth” conditions, or DMEM (High glucose) without FBS respectively for “starvation” conditions, and incubated for 14 h. […]

[3] = tested on: MDA-MB-231 cells; assay: Flow cytometry of DPP-3 in MDA-MB-231 cells; type: cell-based, human; details: MDA-MB-231; 5 μM DPP-3, 5 min, flow cytometry
Method: as §1

[4] = Water solubility of probes (stated in words); type: physicochemical
[5] = tested on: MCF-7 cells; assay: Flow cytometry of DPP-3 in MCF-7 cells; type: cell-based, human; details: 5 μM DPP-3, 5 min, flow cytometry
Method: as §1

[6] = target: T1, APT1 (Homo sapiens, UniProt O75608); assay: In vitro kinetic assay and emission spectra of DPP-1, DPP-2, DPP-3 with purified APT1 (with detergent); type: biochemical
T1 construct: His-tag; made in house; host or cells: E. coli ROSETTA DE3
Method: 50 μL of 7.5 μM DPP1-3 in HEPES (20 mM, pH=7.4, 150 mM NaCl, 0.1% Triton X-100) were added to a 384-well black flat bottom plate (Corning Life Sciences, Corning, N.Y., United States of America) and placed in an Infinite M200 Pro (Tecan, Mannedorf, Switzerland) plate reader at 37° C. for 5 min to warm. 25 μL of either 4-(2-hydroxyethyl)-1-piperazineethanesulfonic acid (HEPES) buffer alone or HEPES buffer containing 150 nM APT1 or APT2, was added using a multi-channel pipette, resulting in a final concentration of 5 μM DPP1-3 and 50 nM APT1 or APT2. Fluorescence intensities (λex 490/9 nm, λem 545/20 nm, Gain 70, No. of flashes 25, Integration time 100 μs and Z-position 20000 μm) were measured at 30 second (s) time intervals for 20 min. At the end of 20 min kinetic run, emission spectra were obtained (λex 485 nm, Aem510-700 nm, Gain 100, No. of flashes 25, Integration time 100 μs and Z-position 20,000 μm).

[7] = tested on: A431 cells; assay: DPP-3 in A431 cells, starvation and EGF stimulation (flow cytometry, microscopy); type: cell-based, human; details: serum starved A431; 1 ng/mL EGF for 15 min; 5 μM DPP-3
Method: as §1
Parallel 35 mm glass bottom dishes (D35-10-1.5-N; Cellvis, Mountain View, Calif., United States of America) of A431 cells (450,000) were plated in 2 mL of DMEM glutamax (high glucose, 10% FBS, 1% P/S), and grown for 36 h. The growth media was removed, and replaced by 1.5 mL of either DMEM (High glucose) with 10% FBS to maintain “growth” conditions, or DMEM (High glucose) without FBS respectively for “starvation” conditions, and incubated for 24 h. […] For data analysis, the average fluorescence intensity per image in each experimental condition was obtained by selecting ROIs in the brightfield image. For display, the data were normalized to the average fluorescence intensity of the control conditions. […]

T1 sequence (O75608 whole entry): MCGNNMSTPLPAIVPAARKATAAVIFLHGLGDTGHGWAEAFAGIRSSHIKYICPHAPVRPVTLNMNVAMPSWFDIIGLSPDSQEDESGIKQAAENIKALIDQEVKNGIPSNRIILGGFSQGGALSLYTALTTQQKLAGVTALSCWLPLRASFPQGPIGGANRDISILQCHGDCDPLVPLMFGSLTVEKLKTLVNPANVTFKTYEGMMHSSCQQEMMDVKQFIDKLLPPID

Row | Compound | detection of endogenous depalmitoylase activities by probe [1] | probe fluorescent signal in live cells [2] | detection of endogenous depalmitoylase activities by probe [3] | water solubility [4] | detection of endogenous depalmitoylase activities by probe [5] | enhancement in fluorescence signal ([6]; 5 μM probe, 50 nM APT1, 20 min) [fold] | selectivity for APT1 over APT2 ([6]; in vitro, purified APT1 vs APT2) | performance as substrate / reaction kinetics ([6]; purified APT1) | effect on depalmitoylation activity measured by DPP-3 [7]
1 | CCCCCCCC(=O)SC[C@@H](C(=O)N[C@@H](CCCCN)C(=O)OC)N(C)C(=O)Oc1ccc2c(c1)Oc1cc(N(C)C)ccc1C21OC(=O)c2ccccc21 (stereo partly drawn) [DPP-3] | can detect endogenous depalmitoylase activities | functions in live cells | can detect endogenous depalmitoylase activities | water soluble | can detect endogenous depalmitoylase activities | 400 | modest selectivity for APT1 over APT2 | striking reaction kinetics | 
2 | EGF: epidermal growth factor, obtained from Gold Biotechnology (NSDSECPLSHDGYCLHDGVCMYIEALDKYACNCVVGYIGERCQYRDLKWWELR; UniProt P01133 971-1023, looked up) |  |  |  |  |  |  |  |  | inhibition of depalmitoylation activity
